Results reported in US4968792A, “Psychotropic benzisothiazole derivatives” (American Home Products Corporation, priority 1989, dated 1990).

Assays:
[1] = biological target: T1, serotonin 5-HT1A receptor (Rattus norvegicus, UniProt P19327); assay: serotonin 5-HT1A receptor binding (displacement of [3H]8-OHDPAT)
T1 construct: following the procedure of Hall et al., J. Neurochem; 44, 1685 (1985); from tissue
T1 sequence (P19327 1-422): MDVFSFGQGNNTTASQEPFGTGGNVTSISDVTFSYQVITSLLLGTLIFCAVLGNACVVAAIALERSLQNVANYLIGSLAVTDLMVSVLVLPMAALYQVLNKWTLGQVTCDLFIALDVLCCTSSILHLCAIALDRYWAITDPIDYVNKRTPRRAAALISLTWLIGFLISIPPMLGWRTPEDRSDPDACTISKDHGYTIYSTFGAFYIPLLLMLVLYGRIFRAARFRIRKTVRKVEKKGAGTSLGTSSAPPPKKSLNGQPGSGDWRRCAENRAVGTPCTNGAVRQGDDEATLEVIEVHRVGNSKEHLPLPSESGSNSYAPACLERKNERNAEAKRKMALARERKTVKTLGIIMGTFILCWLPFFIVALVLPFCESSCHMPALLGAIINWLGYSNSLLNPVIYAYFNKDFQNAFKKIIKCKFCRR
Source text: High affinity for the serotonin 5-HT1A receptor was established by testing the claimed compound's ability to displace [^3 H]8-OHDPAT (dipropylaminotetralin) from the 5-HT1A serotonin receptor following the procedure of Hall et al., J. Neurochem. 44, 1685 (1985). […] The anxiolytic activity of buspirone is believed to be, at least partially, due to its 5-HT1A receptor affinity (Vander Maelen et al., Eur. J. Pharmacol., 129 (1-2) 123-130 (1986).

dopamine D-2 receptor = biological target: T2, dopamine D-2 receptor (Rattus norvegicus, UniProt P61169); assay: dopamine D-2 receptor binding (displacement of 3H-spiroperidol, homogenized limbic brain tissue)
T2 construct: from tissue; host or cells: limbic brain tissue, homogenized
Protocol: High affinity for the dopamine D-2 receptor was established by the standard experimental test procedure of Fields, et al., Brain Res., 136, 578-584 (1977) and Yamamura et al., eds., Neurotransmitter Receptor Binding, Raven Press, N.Y. (1978) wherein homogenized limbic brain tissue is incubated with ^3 H-spiroperiodol and various concentrations of test compound, filtered and washed and shaken with Hydrofluor scintillation cocktail (National Diagnostics) and counted in a Packard 460 CD scintillation counter.

[2] = conditioned avoidance, shelf-jump response test; assay type: in vivo, rat (male CD); details: Rattus norvegicus, no CI, read-out: Avoidance Block AB50, Shelf-jump
Source text: (§1) The antipsychotic properties of the compound of Example 5 were further established by standard pharmacologically accepted procedures involving conditioned avoidance studies in which trained male CD rats (Charles River), 400-500 g. body weight are exposed to a fifteen second warning tone (conditioned stimulus) continued for an additional fifteen seconds accompanied by electric shock. The rat can avoid the electric shock by jumping to an exposed shelf (shelf-jump response). A response during the initial warning tone is considered an avoidance response, while a response during shock delivery is considered an escape response. The shelf-jump response test procedure follows that of Herman et. al., Comm. in Psychopharm., 3, pp. 165-171 (1979). A similar test procedure (Discrete Trial) in which a lever press was substituted for a shelf-jump was also used to establish the activity of the compound of Example 5. The compound was tested over a full dose range and the Avoidance Block activities reported as "AB50 's (mg/kg): Shelf-jump: 6.43 (no CI) i.p., 58.28 (no CI) p.o.; Discrete Trial: 4.80 (2.14-17.66) i.p., 35.35 (no CI) p.o.

[3] = conditioned avoidance, Discrete Trial (lever press); assay type: in vivo, rat (male CD); details: Rattus norvegicus, read-out: Avoidance Block AB50, Discrete Trial
Source text: as §1

[4] = biological target: T1, serotonin 5-HT1A receptor; details: standard for anxiolytic activity; cited from earlier work

T2 sequence (P61169 whole entry): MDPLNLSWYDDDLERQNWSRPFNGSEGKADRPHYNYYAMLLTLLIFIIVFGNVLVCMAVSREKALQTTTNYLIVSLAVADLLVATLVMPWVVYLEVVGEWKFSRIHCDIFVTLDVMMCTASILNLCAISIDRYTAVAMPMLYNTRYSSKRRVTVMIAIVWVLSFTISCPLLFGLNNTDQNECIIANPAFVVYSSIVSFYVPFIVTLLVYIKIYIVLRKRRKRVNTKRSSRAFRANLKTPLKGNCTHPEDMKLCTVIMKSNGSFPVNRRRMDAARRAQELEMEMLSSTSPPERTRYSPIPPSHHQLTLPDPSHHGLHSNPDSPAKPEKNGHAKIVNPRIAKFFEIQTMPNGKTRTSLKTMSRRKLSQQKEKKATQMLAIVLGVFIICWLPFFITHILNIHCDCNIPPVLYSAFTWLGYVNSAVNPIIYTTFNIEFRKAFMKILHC

Row | inhibition at 1 µM [1] | inhibition at 1 µM (dopamine D-2 receptor) | Ki [1] | Structure (SMILES) | further results
1 | 100% | 99% | – | O=C1C2C3C=CC(C4CC34)C2C(=O)N1CCCCN1CCN(c2nsc3ccccc23)CC1 (stereo not shown) [Example 3, 2-[4-[4-(1,2-Benzisothiazol-3-yl)-1-piperazinyl]butyl]-4,4a,5,5a,6,6a-hexahydro-4,6-ethenocycloprop[f]isoindole-1,3(2H,3aH)-dione] | –
2 | 97% | 95% | 0.65 nM | O=C1C2C3C=CC(C4C=CC43)C2C(=O)N1CCCCN1CCN(c2nsc3ccccc23)CC1 (stereo not shown) [Example 4, 2-[4-[4-(1,2-Benzisothiazol-3-yl)-1-piperazinyl]butyl]3a,4,4a,6a,7,7a-hexahydro-4,7-etheno-1H-cyclobut[f]isoindole-1,3(2H)-dione] | –
3 | 96% | 95% | 0.065 nM | O=C1C2CC(C(=O)N1CCCCN1CCN(c3nsc4ccccc34)CC1)C1C2C2C3CC4C2C4C31 (stereo not shown) [Example 5, Decahydro-3-[4-[4-(1,2-benzisothiazol-3-yl)-1-piperazinyl]butyl]-1,5-methano-6,7,9-metheno-2H-pentaleno[1,2-d]azepine-2,4(3H)-dione] | ED50 ([2]; ip): 6.43 mg/kg; ED50 ([2]; po): 58.3 mg/kg; ED50 ([3]; ip, CI in parentheses): 4.8 mg/kg; ED50 ([3]; po, no CI): 35.4 mg/kg; Ki (dopamine D-2 receptor): 0.5 nM
4 | 100% | 100% | – | O=C1C2C(C(=O)N1CCCCN1CCN(c3nsc4ccccc34)CC1)C1C3CC4C(C32)C41 (stereo not drawn) [Example 6, (Exo)-octahydro-2-[4-[4-(1,2-benzisothiazol-3-yl)-1-piperazinyl]butyl]-4,5,7-metheno-1H-pentaleno[1,2-c]pyrrole-1,3(1H)-dione] | –
5 | – | – | 0.4 nM | O=C1C2C(C(=O)N1CCCCN1CCN(c3nsc4ccccc34)CC1)C1C3CC4C(C32)C41 (stereo not drawn) [Example 7, (Endo)-octahydro-2-[4-[4-(1,2-benzisothiazol-3-yl)-1-piperazinyl]butyl]-4,5,7-metheno-1H-pentaleno[1,2-c]pyrrole-1,3(2H)-dione] | 5-HT1A Binding (Inhibition at 1 μM) ([1]; at 1 μM): 100%; D-2 Binding (Inhibition at 1 μM) (dopamine D-2 receptor; at 1 μM): 100%
6 | – | – | – | O=C1CC2(CCCC2)CC(=O)N1CCCCN1CCN(c2ncccn2)CC1 [buspirone] | affinity for the 5-HT1A serotonin receptor subtype (in words) [4]: high affinity
